Data as given in article PMC8344252, “Carbonic anhydrase activation profile of indole-based derivatives” (Journal of Enzyme Inhibition and Medicinal Chemistry, 2021).

How the values were obtained:
[1] = target: hCA VA (Homo sapiens, UniProt P35218); test: CA activation, stopped-flow CO2 hydrase assay; assay type: biochemical; conditions: for KA ratio [hCA VA/hCA VII]: KA ratio for the indicated enzyme isoforms, value in square brackets; for KA hCA VA: activation constant, mean from 3 assays, errors ±5–10%; for hCA VA activation, judged in words: text comment on KA values
Experimental: (§1) A stopped-flow method[38] has been used for assaying the CA catalysed CO2 hydration activity with Phenol red as indicator, working at the absorbance maximum of 557 nm, following the initial rates of the CA-catalysed CO2 hydration reaction for 10–100 s. For each activator, at least six traces of the initial 5–10% of the reaction have been used for determining the initial velocity. The uncatalyzed rates were determined in the same manner and subtracted from the total observed rates. Stock solutions of activator (0.1 mM) were prepared in distilled-deionized water and dilutions up to 0.1 nM were done thereafter with the assay buffer. The activation constant (KA), defined similarly with the inhibition constant (KI), was obtained by considering the classical Michaelis–Menten equation (Equation (3), which has been fitted by nonlinear least squares by using PRISM 3: v=vmax/{1+KM/[S](1+[A]f/KA)} (3) [drawing 4] where [A]f is the free concentration of activator.
(§2) Working at substrate concentrations considerably lower than KM ([S]≪KM), and considering that [A]f can be represented in the form of the total concentration of the enzyme ([E]t) and activator ([A]t), the obtained competitive steady-state equation for determining the activation constant is given by Equation 4: v=v0KA/{KA+[A]t–0.5{([A]t+[E]t+ KA)–([A]t+[E]t+ KA)^2–4[A]t[E]t^1/2}} (4) [drawing 5] where v0 represents the initial velocity of the enzyme-catalysed reaction in the absence of an activator[39–42]. Enzyme concentrations in the assay system were in the range of 6.5–12.0 nM.

[2] = target: hCA II (Homo sapiens, UniProt P00918); test: CA activation, stopped-flow CO2 hydrase assay; assay type: biochemical; conditions: for KA ratio [hCA II/hCA VII]: KA ratio for the indicated enzyme isoforms, value in square brackets; for KA hCA II: activation constant, mean from 3 assays, errors ±5–10%
Experimental: as §1, §2

[3] = target: hCA VII (Homo sapiens, UniProt P43166); test: CA activation, stopped-flow CO2 hydrase assay; assay type: biochemical; conditions: activation constant; mean from 3 assays, errors ±5–10%
Experimental: as §1, §2

[4] = target: hCA I (Homo sapiens, UniProt P00915); test: CA activation, stopped-flow CO2 hydrase assay; assay type: biochemical; conditions: activation constant; mean from 3 assays, errors ±5–10%
Experimental: as §1, §2

[5] = test system: C20 human microglial cell line; test: Cell viability (MTS) assay; assay type: cell-based; conditions: 24 h; for Cell viability of C20 cells: highest tested concentration (10 µM), vs vehicle (DMSO) control
Experimental: (§3) All materials for cell culturing were obtained by Corning, New York, USA, and all used reagents were purchased by Sigma-Aldrich (Saint Louis, MO, USA). The human microglial cell line C20, originally generated by David Alvarez-Carbonell et al.[52], was grown in DMEM-F12 medium supplemented with 10% of FBS, 100 U/mL penicillin, 0.1 mg/mL streptomycin, and neomycin (600 μg/mL), as a selector of the immortalised telomerase-expressing cells. Cells were kept at 37 °C under a humidified atmosphere with […] and 5% CO2. Viable cells (identified by counting trypan-blue-excluding cellular elements) were plated at a density of 100,000 cells each well in a 24-well plate. To evaluate the ability of target compounds to modulate the cellular viability and brain-derived neurotrophic factor (BDNF) release, C20 cells were challenged with CAAs.
C20 cells were seeded in 96-well microplates at a density of 5000 cells/well and maintained in complete culture media. The day after the seed, cells were treated with CAAs 7, 8, and 9 for 24 h (1 and 10 µM). The cell viability was determined using the [3–(4,5-dimethylthiazol-2-yl)-5–(3-carboxymethoxyphenol)-2–(4-sulfophenyl)-2H-tetrazolium, inner salt] (MTS) assay according to the manufacturer’s instructions (Promega, Milano, Italy). This tetrazolium dye can be reduced by the metabolic reducing agents NADH and NADPH to a water-soluble formazan salt. The amount of formazan produced is considered to be a marker of cell viability. The MTS reagent was added to treated C20 cells and the colorimetric conversion of formazane was quantified after 1 h by measuring the absorbance at 490 nm (EnSightTM multimode plate reader, equipped with Kaleido Data Acquisition and Analysis Software).

[6] = test system: BDNF release from C20 human microglial cells; test: BDNF enzyme-linked immunosorbent assay on conditioned medium; assay type: cell-based; conditions: 10 µM, 2 h treatment, medium collected after 24 h, ELISA, normalised on crystal violet
Experimental: as §3, with “To evaluate the ability of target compounds to modulate the cellular viability and brain-derived neurotrophic factor (BDNF) release, C20 cells were challenged with CAAs.” left out
C20 cells were seeded in 24-well microplates at a density of 100,000 cells/well and maintained in complete culture media. […] At the end of the 24 h, the levels of BDNF were measured in the C20 conditioned medium using an enzyme-linked immunosorbent assay (ELISA) Kit (SEA011Mi 96 Tests, Cloude-Clone Corp., CCC, USA), accordingly to manufacture instructions. […] The enzyme-substrate reaction was terminated by the addition of sulphuric acid solution and the colour change was measured spectrophotometrically at a wavelength of 450 nm ± 10 nm. The concentration of BDNF in the samples was then determined by comparing the O.D. of the samples to the standard curve. […]

Sequence of hCA VII (P43166 whole entry): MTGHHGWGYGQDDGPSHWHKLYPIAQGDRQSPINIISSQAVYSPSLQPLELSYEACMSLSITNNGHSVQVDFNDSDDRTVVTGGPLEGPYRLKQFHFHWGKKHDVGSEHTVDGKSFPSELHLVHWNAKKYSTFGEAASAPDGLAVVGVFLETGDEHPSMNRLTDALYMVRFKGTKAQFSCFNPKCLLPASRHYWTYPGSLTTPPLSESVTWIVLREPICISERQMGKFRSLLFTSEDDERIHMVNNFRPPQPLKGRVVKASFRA
Sequence of hCA VA (P35218 39-305): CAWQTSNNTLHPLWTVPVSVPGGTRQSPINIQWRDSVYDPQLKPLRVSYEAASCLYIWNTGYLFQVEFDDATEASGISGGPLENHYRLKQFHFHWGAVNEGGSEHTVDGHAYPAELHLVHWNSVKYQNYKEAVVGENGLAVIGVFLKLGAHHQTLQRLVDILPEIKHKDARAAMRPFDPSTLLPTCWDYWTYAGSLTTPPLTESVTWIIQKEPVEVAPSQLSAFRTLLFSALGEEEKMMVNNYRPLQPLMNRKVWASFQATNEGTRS
Sequence of hCA I (P00915 whole entry): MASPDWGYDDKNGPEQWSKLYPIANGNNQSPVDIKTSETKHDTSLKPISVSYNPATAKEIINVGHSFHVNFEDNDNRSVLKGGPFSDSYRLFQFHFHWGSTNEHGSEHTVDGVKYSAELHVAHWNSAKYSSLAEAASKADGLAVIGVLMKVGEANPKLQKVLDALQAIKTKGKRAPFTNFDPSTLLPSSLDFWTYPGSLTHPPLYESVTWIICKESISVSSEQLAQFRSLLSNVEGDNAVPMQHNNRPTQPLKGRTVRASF

For `CN(C)CCCNC(=O)C(=O)c1cn(Cc2ccccc2)c2ccc(OCCO)cc12` [Compound 1, 2-(5-(2-Hydroxyethoxy)-1-benzyl-1H-indol-3-yl)-N-(3-(dimethylamino)propyl)glyoxylamide], the “KA ratio [hCA VA/hCA VII]” value [1] was 2.3, the “KA hCA VA” value [1] was 25.0 µM and the “KA ratio [hCA II/hCA VII]” value [2] was greater than 9.3. The “KA hCA II” value [2] was greater than 100 µM, the “KA hCA VII” value [3] was 10.8 µM and the “KA hCA I” value [4] was greater than 100 µM.

With `CCN(CC)CCNC(=O)C(=O)c1cn(Cc2ccccc2)c2ccc(OCCO)cc12` [Compound 2, 2-(5-(2-Hydroxyethoxy)-1-benzyl-1H-indol-3-yl)-N-(2-(diethylamino)ethyl)glyoxylamide] the “KA ratio [hCA VA/hCA VII]” value [1] was 2.9, the “KA hCA VA” value [1] was 28.7 µM and the “KA ratio [hCA II/hCA VII]” value [2] was greater than 10.0. For the same compound, the “KA hCA II” value [2] was greater than 100 µM, the “KA hCA VII” value [3] was 10.0 µM and the “KA hCA I” value [4] was 88.9 µM.

With `CN(C)CCCOc1ccc2c(c1)c(C(=O)C(=O)NCCCO)cn2Cc1ccccc1` [Compound 3, 2-(5-(3-(Dimethylamino)propoxy)-1-benzyl-1H-indol-3-yl)-N-(3-hydroxypropyl)glyoxamide] the melting point was 111 to 113 °C, the “KA ratio [hCA VA/hCA VII]” value [1] was 4.8 and the “KA hCA VA” value [1] was 50.9 µM. For the same compound, the “hCA VA activation, judged in words” value [1] was “poor activity”, the “KA ratio [hCA II/hCA VII]” value [2] was greater than 9.4 and the “KA hCA II” value [2] was greater than 100 µM. For the same compound, the “KA hCA VII” value [3] was 10.6 µM and the “KA hCA I” value [4] was greater than 100 µM.

For `CCN(CC)CCOc1ccc2c(c1)c(C(=O)C(=O)NCCO)cn2Cc1ccccc1` [Compound 4, 2-(5-(2-(Diethylamino)ethoxy)-1-benzyl-1H-indol-3-yl)-N-(2-hydroxyethyl)glyoxamide], the melting point was 116 to 118 °C, the “KA ratio [hCA VA/hCA VII]” value [1] was 3.8 and the “KA hCA VA” value [1] was 34.4 µM. The “KA ratio [hCA II/hCA VII]” value [2] was greater than 11.0, the “KA hCA II” value [2] was greater than 100 µM and the “KA hCA VII” value [3] was 9.1 µM. The “KA hCA I” value [4] was greater than 100 µM.

In the case of `CN(C)CCCOc1ccc2c(c1)c(C(=O)NCCO)cn2Cc1ccccc1` [Compound 5, 5-(3-(Dimethylamino)propoxy)-1-benzyl-N-(2-hydroxyethyl)-1H-indole-3-carboxamide], the “KA ratio [hCA VA/hCA VII]” value [1] is reported as 2.7, the “KA hCA VA” value [1] is reported as 28.0 µM and the “KA ratio [hCA II/hCA VII]” value [2] is reported as greater than 9.6. For the same compound, the “KA hCA II” value [2] was greater than 100 µM, the “KA hCA VII” value [3] was 10.4 µM and the “KA hCA I” value [4] was greater than 100 µM.

With `CN(C)CCOc1ccc2c(c1)c(C(=O)NCCO)cn2Cc1ccccc1` [Compound 6, 5-(2-(Dimethylamino)ethoxy)-1-benzyl-N-(2-hydroxyethyl)-1H-indole-3-carboxamide] the “KA ratio [hCA VA/hCA VII]” value [1] was 2.5, the “KA hCA VA” value [1] was 26.8 µM and the “KA ratio [hCA II/hCA VII]” value [2] was greater than 9.3. The “KA hCA II” value [2] was greater than 100 µM, the “KA hCA VII” value [3] was 10.7 µM and the “KA hCA I” value [4] was greater than 100 µM.

For `CCN(CC)CCOc1ccc2c(c1)c(C(=O)NCc1ccccc1)cn2Cc1ccccc1` [Compound 7, 5-(2-(Diethylamino)ethoxy)-N,1-dibenzyl-1H-indole-3-carboxamide], the “Cytotoxic activity on C20 cells” value ([5]; 1 and 10 µM, any of the tested concentrations) was “did not exhibit cytotoxic activity”, the “Cell viability of C20 cells” value [5] was “a little increase in cell viability” and the melting point was 57 to 59 °C. For the same compound, the “BDNF levels in medium of C20 cells” value [6] was “significant increase in BDNF levels”, the “KA ratio [hCA VA/hCA VII]” value [1] was 3.2 and the “KA hCA VA” value [1] was 24.4 µM. For the same compound, the “KA ratio [hCA II/hCA VII]” value [2] was greater than 13.3, the “KA hCA II” value [2] was greater than 100 µM and the “KA hCA VII” value [3] was 7.5 µM. The “KA hCA I” value [4] was greater than 100 µM.

With `CCOC(=O)c1cn(Cc2ccccc2)c2ccc(OCCCN(C)C)cc12` [Compound 8, Ethyl 5-(3-(dimethylamino)propoxy)-1-benzyl-1H-indole-3-carboxylate] the “Cell viability of C20 cells” value [5] was “slight, although not statistically significant, reduction in cell viability”, the melting point was 58 to 60 °C and the “KA ratio [hCA VA/hCA VII]” value [1] was 8.3. For the same compound, the “KA hCA VA” value [1] was 59.8 µM, the “hCA VA activation, judged in words” value [1] was “poor activity” and the “KA ratio [hCA II/hCA VII]” value [2] was greater than 13.9. For the same compound, the “KA hCA II” value [2] was greater than 100 µM, the “KA hCA VII” value [3] was 7.2 µM and the “KA hCA I” value [4] was 69.1 µM.

For `CCOC(=O)c1cn(Cc2ccccc2)c2ccc(OCCN(C)C)cc12` [Compound 9, Ethyl 5-(2-(dimethylamino)ethoxy)-1-benzyl-1H-indole-3-carboxylate], the “Cell viability of C20 cells” value [5] was “slight, although not statistically significant, reduction in cell viability”, the melting point was 69 to 71 °C and the “KA ratio [hCA VA/hCA VII]” value [1] was 3.5. The “KA hCA VA” value [1] was 29.1 µM, the “KA ratio [hCA II/hCA VII]” value [2] was greater than 12.2 and the “KA hCA II” value [2] was greater than 100 µM. The “KA hCA VII” value [3] was 8.2 µM and the “KA hCA I” value [4] was greater than 100 µM.

In the case of `NCCc1c[nH]cn1` [Histamine, reference compound], the “KA hCA VA” value [1] is reported as 0.010 µM, the “KA hCA II” value [2] is reported as 125 µM and the “KA hCA VII” value [3] is reported as 37.5 µM. The “KA hCA I” value [4] was 2.1 µM.
